Strand notation (5' to 3'): a small letter for the sugar, then the base; units joined by * are phosphorothioate-linked, units joined directly phosphodiester-linked; [ ] holds rarer units or linkages, { } end groups; capitals alone tell only the bases. k = constrained ethyl (cEt); [5mC] = 5-methylcytosine; d = 2'-deoxy (DNA)
test system: Yap1 mRNA; test: Antisense inhibition of human Yap1 in A-431 cells by cEt gapmers, single dose (Example 3, RTS36584); assay type: cell-based; conditions: Table 8; A-431 cells, 5,000 cells per well, free uptake, 2,000 nM, approximately 48 hours; RTS36584; normalized to RIBOGREEN; Yap1 mRNA relative to untreated control cells
Description: Modified oligonucleotides were designed to target a Yap1 nucleic acid and were tested for their effect on Yap1 mRNA level in vitro. The modified oligonucleotides were tested in a series of experiments that had similar culture conditions. Cultured A-431 cells at a density of 5,000 cells per well were treated using free uptake with 2,000 nM of modified oligonucleotide. After a treatment period of approximately 48 hours, RNA was isolated from the cells and Yap1 mRNA levels were measured by quantitative real-time RTPCR. Human primer probe set RTS36584 (forward sequence […], designated herein as SEQ ID NO.: 14; reverse sequence […], designated herein as SEQ ID NO.: 15; probe sequence […], designated herein as SEQ ID NO.: 16) was used to measure mRNA levels. Yap1 mRNA levels were normalized to total RNA content, as measured by RIBOGREEN®. Results are presented in the tables below as percent control of the amount of Yap1 mRNA relative to untreated control cells (% UTC). The modified oligonucleotides with percent control values marked with an asterisk (*) target the amplicon region of the primer probe set. Additional assays may be used to measure the potency and efficacy of the modified oligonucleotides targeting the amplicon region.
The newly designed modified oligonucleotides in the Tables below were designed as 3-10-3 cEt gapmers. The gapmers are 16 nucleosides in length, wherein the central gap segment comprises of ten 2′-deoxynucleosides and is flanked by wing segments on the 5′ direction and the 3′ direction comprising three nucleosides each. Each nucleoside in the 5′ wing segment and each nucleoside in the 3′ wing segment has a cEt sugar modification. The internucleoside linkages throughout each gapmer are phosphorothioate (P═S) linkages. All cytosine residues throughout each gapmer are 5-methylcytosines.
“Start site” indicates the 5′-most nucleoside to which the gapmer is targeted in the human gene sequence. “Stop site” indicates the 3′-most nucleoside to which the gapmer is targeted human gene sequence. […] Activity of the modified oligonucleotide may be defined in a different experiment.

Substance	YAP1 (% UTC)
958423 (antisense kG*kA*kT*d[5mC]*dA*dA*d[5mC]*dA*dT*dG*d[5mC]*dT*dA*kA*k[5mC]*kA) [Compound 958423]	51

same assay, conditions: Table 10; A-431 cells, 5,000 cells per well, free uptake, 2,000 nM oligonucleotide, approx. 48 hours; primer probe set RTS36584; Yap1 mRNA normalized to RIBOGREEN, percent of untreated control

Substance	YAP1 (% UTC)
958502 (k[5mC]*kT*kA*dT*dT*dA*dA*d[5mC]*dA*dG*dA*dT*dT*k[5mC]*kA*k[5mC]; antisense) [Compound 958502]	13
958777 (antisense kG*kT*kA*dA*d[5mC]*dT*dG*dT*dT*dT*d[5mC]*dT*dA*kG*kG*kT) [Compound 958777]	10
958607 (antisense k[5mC]*kA*kA*d[5mC]*dA*dT*dG*d[5mC]*dT*dT*dG*d[5mC]*dG*kA*kG*kG) [Compound 958607]	11

same assay, conditions: Table 11; A-431 cells, 5,000 cells per well, free uptake, 2,000 nM oligonucleotide, approx. 48 hours; primer probe set RTS36584; Yap1 mRNA normalized to RIBOGREEN, percent of untreated control

Substance	YAP1 (% UTC)
958448 (antisense kG*k[5mC]*kG*dA*dA*dG*dG*d[5mC]*dG*dG*d[5mC]*dT*dG*k[5mC]*k[5mC]*k[5mC]) [Compound 958448]	86
958623 (antisense kT*kT*kG*dA*dT*dA*dT*dT*d[5mC]*d[5mC]*dG*d[5mC]*dA*kT*kT*kG) [Compound 958623]	3
958598 (k[5mC]*k[5mC]*k[5mC]*dA*dA*dT*dG*d[5mC]*dT*dA*d[5mC]*d[5mC]*d[5mC]*kA*kA*kT; antisense) [Compound 958598]	4
958733 (antisense kT*kA*kA*dT*dA*dG*dA*d[5mC]*dT*dA*dG*dA*d[5mC]*kT*kT*kA) [Compound 958733]	67
958523 (kT*kT*k[5mC]*d[5mC]*dA*dA*dT*d[5mC]*dG*dA*dG*dA*d[5mC]*kT*kT*kA; antisense) [Compound 958523]	3
958673 (kA*kG*kA*dA*d[5mC]*dT*dT*dA*dG*dT*dT*d[5mC]*d[5mC]*k[5mC]*kT*kT; antisense) [Compound 958673]	30

same assay, conditions: Table 12; A-431 cells, 5,000 cells per well, free uptake, 2,000 nM modified oligonucleotide, approx. 48 hours; RTS36584; normalized to RIBOGREEN; Yap1 mRNA relative to untreated control cells

Substance	YAP1 (% UTC)
958529 (k[5mC]*kA*kA*dG*dT*d[5mC]*dT*dT*dG*dT*dA*dA*dG*kT*kA*kA; antisense) [Compound 958529]	3
958444 (antisense kA*k[5mC]*kG*d[5mC]*d[5mC]*d[5mC]*d[5mC]*dG*dG*d[5mC]*dT*d[5mC]*d[5mC]*kA*k[5mC]*kG) [Compound 958444]	97
958799 (antisense kA*kT*kT*dA*d[5mC]*dT*d[5mC]*dA*dA*dT*d[5mC]*dA*dT*kG*kG*kT) [Compound 958799]	2
958474 (antisense kG*kT*kG*dT*d[5mC]*dT*d[5mC]*d[5mC]*dT*dT*dA*dG*dA*kT*k[5mC]*k[5mC]) [Compound 958474]	3
958459 (antisense k[5mC]*kT*kG*dA*dA*dG*d[5mC]*d[5mC]*dG*dA*dG*dT*dT*k[5mC]*kA*kT) [Compound 958459]	28
958649 (kT*kG*k[5mC]*d[5mC]*dA*d[5mC]*dT*dG*dG*dT*dG*dA*dA*kT*kA*k[5mC]; antisense) [Compound 958649]	36

same assay, conditions: Table 13; A-431 cells, 5,000 cells per well, free uptake, 2,000 nM modified oligonucleotide, approx. 48 hours; RTS36584; normalized to RIBOGREEN; Yap1 mRNA relative to untreated control cells

Substance	YAP1 (% UTC)
958600 (kG*kT*kA*dG*dA*dT*d[5mC]*dT*dA*dA*dG*dA*dA*kG*k[5mC]*k[5mC]; antisense) [Compound 958600]	8
958585 (k[5mC]*kT*k[5mC]*dT*dA*dT*d[5mC]*dA*dA*dG*dG*dT*d[5mC]*k[5mC]*k[5mC]*k[5mC]; antisense) [Compound 958585]	5

same assay, conditions: Table 26; Yap1 mRNA by 3-10-3 cEt gapmers targeting SEQ ID NO.: 1, and 2; percent of untreated control

Substance	YAP1 (% UTC)
1074764 (kA*kT*kG*d[5mC]*dT*dA*d[5mC]*d[5mC]*d[5mC]*dA*dA*dT*dA*k[5mC]*kA*kA; antisense) [compound 1074764]	18
1075244 (kA*k[5mC]*k[5mC]*d[5mC]*dA*dA*dA*dA*dA*dT*dT*d[5mC]*dT*kG*kT*kG; antisense) [compound 1075244]	76

same assay, conditions: Table 27; Yap1 mRNA by 3-10-3 cEt gapmers targeting SEQ ID NO.: 1, and 2; percent of untreated control

Substance	YAP1 (% UTC)
1075597 (antisense kA*kT*kT*dA*dA*d[5mC]*dA*dT*dT*dT*dG*d[5mC]*d[5mC]*k[5mC]*kG*k[5mC]) [compound 1075597]	47
1075117 (k[5mC]*k[5mC]*kT*d[5mC]*dA*dA*dT*dA*dG*d[5mC]*dA*dA*dG*kA*k[5mC]*kA; antisense) [compound 1075117]	48
1074317 (antisense kG*kA*kG*dA*dA*dT*dT*dT*dG*d[5mC]*dT*dG*dT*kG*k[5mC]*kT) [compound 1074317]	12

same assay, conditions: Table 28; Yap1 mRNA as percent of untreated control; 3-10-3 cEt gapmers targeting SEQ ID NO.: 1, and 2

Substance	YAP1 (% UTC)
1076238 (kG*kA*kT*dG*dA*dA*dT*dA*dG*d[5mC]*dT*dA*dA*kG*kA*kA; antisense) [compound 1076238]	30

same assay, conditions: Table 29; Yap1 mRNA as percent of untreated control; 3-10-3 cEt gapmers targeting SEQ ID NO.: 1, and 2

Substance	YAP1 (% UTC)
1076207 (kA*kG*kT*d[5mC]*dA*dA*dT*dA*dA*dA*d[5mC]*dT*dT*kA*k[5mC]*k[5mC]; antisense) [compound 1076207]	58
1074767 (kT*kT*kA*dT*d[5mC]*d[5mC]*d[5mC]*dA*dA*dT*dG*d[5mC]*dT*kA*k[5mC]*k[5mC]; antisense) [compound 1074767]	12
1074223 (antisense kG*kA*kA*dA*d[5mC]*dA*dG*d[5mC]*dT*d[5mC]*d[5mC]*d[5mC]*dA*kA*k[5mC]*kT) [compound 1074223]	48

same assay, conditions: Table 34; Yap1 mRNA as percent of untreated control; 3-10-3 cEt gapmers targeting SEQ ID NO: 1 and 2; single dose

Substance	YAP1 (% UTC)
1074836 (kA*kA*k[5mC]*dA*dA*d[5mC]*dA*dT*dG*d[5mC]*dT*dT*dG*k[5mC]*kG*kA; antisense) [compound 1074836]	27
1074612 (DNA kA*kT*kA*dG*d[5mC]*dT*dT*dA*dT*dA*dT*dT*dG*kA*kA*kG; further chemistry not given here) [compound 1074612]	12
1075284 (antisense k[5mC]*kT*kT*dT*dT*d[5mC]*dG*dA*dA*dT*dA*dT*dA*kG*kA*kA) [compound 1075284]	76
1075732 (kA*kA*kT*dA*dA*d[5mC]*d[5mC]*dT*d[5mC]*dG*dA*dG*dT*kG*k[5mC]*kT; antisense) [compound 1075732]	36
1076500 (k[5mC]*kA*kA*dT*dT*dA*dA*dG*dA*dT*d[5mC]*dA*dA*k[5mC]*kA*kT; antisense) [compound 1076500]	99
1075092 (kT*kT*kA*dA*dA*dA*d[5mC]*dA*dA*d[5mC]*dG*dA*dA*kT*kG*kA; antisense) [compound 1075092]	63

same assay, conditions: Table 35; Yap1 mRNA as percent of untreated control; 3-10-3 cEt gapmers targeting SEQ ID NO: 1 and 2; single dose

Substance	YAP1 (% UTC)
1074197 (antisense kT*kG*k[5mC]*d[5mC]*d[5mC]*dG*dG*dG*dT*d[5mC]*d[5mC]*dG*dG*kA*k[5mC]*kG) [compound 1074197]	91
1075989 (kG*k[5mC]*kT*dA*dA*dA*dA*dT*dT*dA*dA*dG*d[5mC]*kT*kT*k[5mC]; antisense) [compound 1075989]	78
1074965 (antisense kG*kT*kG*dT*dT*dT*dA*dG*dG*d[5mC]*dA*dA*dG*k[5mC]*kA*kG) [compound 1074965]	20
1075285 (antisense kT*kA*kT*dA*d[5mC]*dA*dT*dA*dG*dT*d[5mC]*dA*dA*kT*kT*k[5mC]) [compound 1075285]	60
1074709 (antisense kT*k[5mC]*kT*dA*dG*dA*dA*d[5mC]*dA*dG*d[5mC]*dT*dG*k[5mC]*k[5mC]*kT) [compound 1074709]	71
1075477 (k[5mC]*kT*kT*dT*dA*dT*d[5mC]*dT*d[5mC]*dA*d[5mC]*dT*dA*kG*k[5mC]*kT; antisense) [compound 1075477]	86

Reference: US11214803B2, “Modulators of YAP1 expression” (Ionis Pharmaceuticals, Inc., priority 2019, dated 2022)
